In patent US5369111A, “Modulator agent and use thereof” (University of Vermont, priority 1992, dated 1994):
pIC50: −log10 of the molar value.

Tests used:
[1] = system: RCC-2 cells; experiment: Inhibition of population growth (cytotoxicity), rat colon adenocarcinoma RCC-2; format: cell-based; details: Rattus norvegicus; RCC-2, 72 h
Description: (§1) The analogs were examined in a panel of tumor cell lines of both intrinsic and acquired drug resistance, as described in Table 1. The rat colon adenocarcinoma cell lines RCC-2 and RCC-5 (ref. 13) were maintained in Ham's F12 medium supplemented with 5% heat-inactivated, fetal bovine serum (Sterile Systems. Hyclone, Logan, Utah). The two rat colon cancer cell lines differ in their degree of cellular differentiation; whereas the RCC-2 cell line is undifferentiated, the RCC-5 cell line is highly mucinous. The human epidermoid carcinoma cell line KB-3-1 and its MDR variant KB-Vl, selected by VBL treatment (ref. 14; courtesy of M. Gottesman. National Cancer Institute), was maintained in DMEM medium supplemented with 10%, heat-inactivated, fetal bovine serum. The murine sarcoma cell line […] and its MDR strains A3 and A10 selected by ADM treatment (ref. 15; courtesy of T. Tritton, Dept. Pharmacology, Univ. Vermont). were maintained in DMEM medium supplemented with 10% heat-inactivated, horse serum (Hazelton Biolog. Lenexa, Kans.). Stock cultures were subcultured twice weekly upon reaching the late exponential phase of population growth: population doubling times were 18-24 h. Antibiotics were not used in stock or experimental cultures. The MDR cell strains were grown in drug-free media for 48 h prior to experimental use.
(§2) Mid-exponential cultures were used for all assays. The RCC-2 and RCC-5 cell lines were seeded into 24-well plates at 2×10^4 cells/well and allowed to attach to the substratum for 16-18 h prior to treatment. The S180 cell lines were seeded into culture tubes at 1×10^5 cells/ml and treated immediately. Cytotoxicity was determined by quantitation of population growth after 72 h incubation by electronic particle counter (Coulter Electronics, Hialeah, Fla.). The human tumor cell lines were used in a clonogenic assay for cytotoxicity. Cells were seeded at 300 cells/dish, incubated overnight and then treated. Colonies were scored 7-11 days later. In all assays of analog modulation of drug sensitivity, the analog was added minutes prior to the addition of cytotoxic drug.

[2] = system: RCC-5 cells; experiment: Inhibition of population growth (cytotoxicity), rat colon adenocarcinoma RCC-5; format: cell-based; details: Rattus norvegicus; RCC-5, 72 h
Description: as §1, §2

[3] = system: S180 cells, parental; experiment: Inhibition of population growth (cytotoxicity), S180 sarcoma, parental; format: cell-based, mouse; details: Mus musculus; for IC70: S-180, 72 h, parental S180; for pIC50: S-180
Description: as §1, §2

[4] = system: KB-3-1 cells; experiment: Clonogenic assay for cytotoxicity, KB-3-1 parental; format: cell-based; details: Homo sapiens
Description: as §1, §2

[5] = system: S180/A3 cells; experiment: Inhibition of population growth (cytotoxicity), MDR strain S180/A3; format: cell-based, mouse
Description: as §1, §2

[6] = system: S180/A10 cells; experiment: Inhibition of population growth (cytotoxicity), MDR strain S180/A10; format: cell-based, mouse; details: 4320 min
Description: as §1, §2

[7] = system: KB-V1 cells; experiment: Clonogenic assay for cytotoxicity, MDR variant KB-V1; format: cell-based, human; details: for Relative resistance: IC50 in KB-V1 divided by IC50 of parental, Table I
Description: as §1, §2
FIG. 10 represents the potency of the analog C-20'-deoxy deethyl vincovaline as a modulator of the drug sensitivity of various cell lines: the parental S180 cell line: the two rat colon cancer cell lines, RCC-2 and RCC-5; and the human epidermoid carcinoma cell line KB-3-1 and its MDR cell strain KB-V1, which expresses very high levels of drug resistance (200-500 fold). The enhancement of sensitivity was calculated as the sensitivity index =IC50 of the drug alone divided by the IC50 of the drug+analog. The drugs examined were ADM (o), VBL (Δ), and VCR (.quadrature.). The cytotoxicity of drug and analog treatments in the KB cell lines were measured by cloning efficiencies. The arrows denote the non-toxic concentration limit of the analog in each cell line.

[8] = system: P388 R cells; experiment: Viability (MTT test) of P388 R cells; format: cell-based, mouse; details: for resistance of P388 R cells to cytotoxic activity of the drug: FIGS. 12 to 14
Description: The sensitization of C-20'-deoxy C-20'-deethyl vincovaline (D-DEV) has been tested on sensitive and resistants P388 cell lines originating from mouse lympnoma.
The resistance to anticancerous drug has been induced on DBA2 mouses bearing P388 cells ascites and maintained by treatment with adryamycin.
This study has been carried out at least in triplicate.

[9] = A3, IC50 resistant / IC50 parental, Table II, 4320 min
[10] = IC50 in S180/A3 divided by IC50 of parental, Table I
[11] = A10, IC50 resistant / IC50 parental, Table II
[12] = IC50 in S180/A10 divided by IC50 of parental, Table I

Compound | pIC50 [1] | pIC50 [2] | IC70 [3] | pIC50 ([3]; S180, parental, Table II) | pIC50 ([3]; S180 parental, 72 h, Table I) | pIC50 [4] | Relative resistance [5, 9] | Relative resistance [5, 10] | Relative resistance [6, 11] | Relative resistance [6, 12] | resistance of KB-V1 to the drug [7] | Relative resistance [7] | adriamycin cytotoxicity in P388 R cells ([8]; 0.17 to 4.31 μM, 37° C., 24 and 48 hours) | resistance of P388 R cells to cytotoxic activity of the drug [8] | vinblastine cytotoxicity towards P388 R cells ([8]; 0.00055 to 0.11 μM, 24 hours) | vincristine cytotoxicity towards P388 R cells ([8]; 0.1 nM to 0.054 μM, 24 hours)
COc1cccc2c1C(=O)c1c(O)c3c(c(O)c1C2=O)C[C@@](O)(C(=O)CO)C[C@@H]3O[C@H]1C[C@H](N)[C@H](O)[C@H](C)O1 [ADM, adriamycin] | 8.00 | 7.30 | 200 nM | 7.00 | 7.00 | 7.82 | 15 | 15 | 90 | 90 | ≥ 200 fold | 500 | lack of adriamycin cytotoxicity | resistance of P388 R cells to cytotoxic activity |  | 
CC[C@]1(O)C[C@@H]2CN(CCc3c([nH]c4ccccc34)[C@@](C(=O)OC)(c3cc4c(cc3OC)N(C)[C@H]3[C@@](O)(C(=O)OC)[C@H](OC(C)=O)[C@]5(CC)C=CCN6CC[C@]43[C@@H]65)C2)C1 [VBL, vinblastine] | 8.52 | 8.10 | 15 nM | 8.10 | 8.10 | 9.00 | 3 | 3 | 15 | 15 | ≥ 200 fold | 200 |  | resistance of P388 R cells to cytotoxic activity | lack of vinblastine cytotoxicity | 
CC[C@]1(O)C[C@H]2CN(CCc3c([nH]c4ccccc34)[C@@](C(=O)OC)(c3cc4c(cc3OC)N(C=O)[C@H]3[C@@](O)(C(=O)OC)[C@H](OC(C)=O)[C@]5(CC)C=CCN6CC[C@]43[C@@H]65)C2)C1 [VCR, vincristine] | 8.30 | 7.82 | 45 nM | 7.52 | 7.52 | 8.70 | 10 | 7 | 20 | 17 | ≥ 200 fold | 400 |  | resistance of P388 R cells to cytotoxic activity |  | lack of vincristine cytotoxicity
